As usually defined, the IC50 is the midpoint of a concentration-inhibition curve. A higher IC50 goes with lower potency.

Chain of H1047R PIK3CA enzyme (P42336 whole entry H1047R): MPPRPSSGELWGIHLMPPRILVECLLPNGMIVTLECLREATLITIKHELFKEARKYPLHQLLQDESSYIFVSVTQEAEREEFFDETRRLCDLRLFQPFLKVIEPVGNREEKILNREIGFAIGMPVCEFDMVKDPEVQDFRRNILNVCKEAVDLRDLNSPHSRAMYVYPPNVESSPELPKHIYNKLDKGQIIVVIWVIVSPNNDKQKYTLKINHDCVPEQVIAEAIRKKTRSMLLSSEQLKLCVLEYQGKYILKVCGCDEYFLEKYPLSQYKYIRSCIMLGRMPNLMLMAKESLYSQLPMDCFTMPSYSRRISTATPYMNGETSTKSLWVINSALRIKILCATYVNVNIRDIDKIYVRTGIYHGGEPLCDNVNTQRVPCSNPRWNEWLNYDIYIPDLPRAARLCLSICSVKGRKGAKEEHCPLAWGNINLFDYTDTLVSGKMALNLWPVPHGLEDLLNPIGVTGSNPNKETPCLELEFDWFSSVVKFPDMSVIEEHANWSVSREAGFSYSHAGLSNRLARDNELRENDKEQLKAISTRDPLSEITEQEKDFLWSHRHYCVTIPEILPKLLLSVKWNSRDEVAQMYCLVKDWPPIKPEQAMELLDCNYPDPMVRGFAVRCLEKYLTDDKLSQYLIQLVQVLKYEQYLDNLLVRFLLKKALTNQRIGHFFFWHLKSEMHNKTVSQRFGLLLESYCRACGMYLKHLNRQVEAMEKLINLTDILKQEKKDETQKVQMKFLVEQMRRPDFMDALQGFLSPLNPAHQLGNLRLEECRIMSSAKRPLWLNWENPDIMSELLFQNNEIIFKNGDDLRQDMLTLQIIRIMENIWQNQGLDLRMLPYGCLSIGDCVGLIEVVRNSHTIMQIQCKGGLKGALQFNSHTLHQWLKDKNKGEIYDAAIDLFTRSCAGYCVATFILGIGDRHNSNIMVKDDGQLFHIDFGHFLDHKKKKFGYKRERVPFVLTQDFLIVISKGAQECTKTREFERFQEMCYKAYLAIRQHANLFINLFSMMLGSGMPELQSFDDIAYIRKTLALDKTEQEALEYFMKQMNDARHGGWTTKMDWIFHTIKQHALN
Chain of H1047R PIK3CA enzyme (P27986 whole entry partner): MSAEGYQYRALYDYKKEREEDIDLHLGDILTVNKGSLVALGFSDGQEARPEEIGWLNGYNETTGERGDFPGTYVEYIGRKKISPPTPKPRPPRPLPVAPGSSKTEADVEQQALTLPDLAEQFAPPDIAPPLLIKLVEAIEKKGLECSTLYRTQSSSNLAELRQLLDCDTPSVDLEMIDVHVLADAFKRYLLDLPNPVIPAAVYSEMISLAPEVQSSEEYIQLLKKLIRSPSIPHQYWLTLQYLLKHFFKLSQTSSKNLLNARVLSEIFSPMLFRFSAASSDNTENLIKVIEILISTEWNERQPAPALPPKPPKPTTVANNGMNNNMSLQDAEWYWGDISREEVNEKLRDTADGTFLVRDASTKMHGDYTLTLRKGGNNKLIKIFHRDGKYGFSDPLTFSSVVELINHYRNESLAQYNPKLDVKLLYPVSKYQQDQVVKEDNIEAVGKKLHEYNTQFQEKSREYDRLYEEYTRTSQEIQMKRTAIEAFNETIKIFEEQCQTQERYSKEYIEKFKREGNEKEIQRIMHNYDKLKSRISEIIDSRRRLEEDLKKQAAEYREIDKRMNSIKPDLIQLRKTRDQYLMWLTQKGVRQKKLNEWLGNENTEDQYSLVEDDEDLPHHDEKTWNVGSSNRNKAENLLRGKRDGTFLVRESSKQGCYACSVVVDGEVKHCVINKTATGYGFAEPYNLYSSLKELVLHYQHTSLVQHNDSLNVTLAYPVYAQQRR

This test concerns the target H1047R PIK3CA enzyme (Homo sapiens, UniProt P42336, H1047R). As to the kind of experiment: ADP-Glo Biochemical PIK3CA Kinase Assay. In general terms: In ADP-Glo the light output rises with the ADP produced.
As to `Nc1ncc(-c2cc(NC(=O)c3cc(F)cc(C(F)(F)F)c3)c3c(c2)C(=O)NC3c2cc(F)ccc2Cl)cn1` (stereo not drawn) [Compound I-885], the half-inhibitory concentration (IC50) was no more than 100 nM.
For `N#Cc1ncc(-c2cc(NC(=O)c3cc(F)cc(C(F)(F)F)c3)c3c(c2)C(=O)NC3c2cc(F)ccc2Cl)cn1` (stereo not drawn) [Compound I-886] the value was no more than 100 nM; for `O=C(Nc1cc(-c2cccnc2)cc2c1C(c1cc(F)ccc1Cl)NC2=O)c1cc(F)cc(C(F)(F)F)c1` (stereo not drawn) [Compound I-888], no more than 100 nM; for `Cn1ccc(-c2cc(NC(=O)c3cc(F)cc(C(F)(F)F)c3)c3c(c2)C(=O)NC3c2cc(F)ccc2Cl)cc1=O` (stereo not drawn) [Compound I-889], no more than 100 nM.
In turn, `Cc1cnccc1-c1cc(NC(=O)c2cc(F)cc(C(F)(F)F)c2)c2c(c1)C(=O)NC2c1cc(F)ccc1Cl` (stereo not drawn) [Compound I-890] had an IC50 of no more than 100 nM.
Compound `COc1cccc(-c2cc(NC(=O)c3cc(F)cc(C(F)(F)F)c3)c3c(c2)C(=O)NC3c2cc(F)ccc2Cl)n1` (stereo not drawn) [Compound I-891] had an IC50 of no more than 100 nM.
In the case of `O=C(Nc1cc(-c2cccnc2C(F)(F)F)cc2c1C(c1cc(F)ccc1Cl)NC2=O)c1cc(F)cc(C(F)(F)F)c1` (stereo not drawn) [Compound I-892], the half-maximal inhibitory concentration (IC50) is no more than 100 nM.
For `O=C(Nc1cc(-c2ccc3ncccc3c2)cc2c1[C@@H](c1cc(F)ccc1Cl)NC2=O)c1cc(F)cc(C(F)(F)F)c1` [Compound I-893] the value was 1000 to 10000 nM; for `Cc1ncc(-c2cc(NC(=O)c3cc(F)cc(Cl)c3)c3c(c2)C(=O)N[C@@H]3c2cc(F)ccc2Cl)cn1` [Compound I-895], 10000 to 100000 nM.
For `Cc1ncc(-c2cc(NC(=O)c3cc(F)cc(Cl)c3)c3c(c2)C(=O)N[C@H]3c2cc(F)ccc2Cl)cn1` [Compound I-896] the value was no more than 100 nM; for `CC(C)(O)CNc1cc(NC(=O)c2cc(F)cc(C(F)(F)F)c2)c2c(c1)C(=O)N[C@H]2c1cc(F)ccc1Cl` [Compound I-899], 10000 to 100000 nM; for `O=C(Nc1cccc2c1C(c1ccccc1C1COC1)NC2=O)c1cc(F)cc(C(F)(F)F)c1` (stereo not drawn) [Compound I-907], 10000 to 100000 nM.
For `O=C(Nc1cc(Br)cc2c1C(c1cc(F)ccc1Cl)NC2=O)c1cc(C(F)(F)F)cc(F)c1F` (stereo not drawn) [Compound I-908], the IC50 fell in the range of 1000 to 10000 nM.
`O=C(Nc1cc(Br)cc2c1C(c1cc(F)ccc1Cl)NC2=O)c1cncc(Cl)c1` (stereo not drawn) [Compound I-909] came in with an IC50 of 1000 to 10000 nM.
To `N#Cc1cc(F)cc(C(=O)Nc2cc(Br)cc3c2C(c2cc(F)ccc2Cl)NC3=O)c1` (stereo not drawn) [Compound I-910] belongs 1000 to 10000 nM; to `O=C(Nc1cc(Br)cc2c1C(c1cc(F)ccc1Cl)NC2=O)c1cc(Cl)ccc1C(F)F` (stereo not drawn) [Compound I-911], 1000 to 10000 nM.
Take `CS(=O)(=O)c1cc(F)cc(C(=O)Nc2cc(Br)cc3c2C(c2cc(F)ccc2Cl)NC3=O)c1` (stereo not drawn) [Compound I-912]: the IC50 lay in the range of 10000 to 100000 nM.
Take `O=C(Nc1cc(-c2ncc[nH]2)cc2c1[C@@H](c1cc(F)ccc1Cl)NC2=O)c1cc(F)cc(C(F)(F)F)c1` [Compound I-918]: the IC50 lay within 500 to 1000 nM.
`O=C(Nc1cccc2c1C(c1ccccc1C1CC1)NC2=O)c1cc(F)cc(C(F)(F)F)c1` (stereo not drawn) [Compound I-925] had an IC50 of 100 to 500 nM.
To `O=C(Nc1cc(-c2n[nH]c3ccncc23)cc2c1C(c1cc(F)ccc1Cl)NC2=O)c1cc(F)cc(C(F)(F)F)c1` (stereo not drawn) [Compound I-938] belongs 100 to 500 nM; to `O=C(Nc1cccc2c(=O)[nH]n(-c3cccc(Cl)c3)c12)c1cc(F)cc(C(F)(F)F)c1` [Compound I-950], 1000 to 10000 nM; to `Cc1cc(F)cc(C(=O)Nc2cc(Br)cc3c2C(c2cc(F)ccc2Cl)NC3=O)c1` (stereo not drawn) [Compound I-951], 1000 to 10000 nM.
For `O=C(Nc1cc(Br)cc2c1C(c1cc(F)ccc1Cl)NC2=O)c1ccc(Cl)c(C(F)(F)F)c1` (stereo not drawn) [Compound I-952], the IC50 is 100 to 500 nM.
On to `O=C(Cc1c[nH]c2ccccc12)Nc1cc(Br)cc2c1C(c1cc(F)ccc1Cl)NC2=O` (stereo not drawn) [Compound I-953], for which the IC50 was 10000 to 100000 nM.
Compound `O=C(O)c1cc(F)cc(C(=O)Nc2cc(Br)cc3c2C(c2cc(F)ccc2Cl)NC3=O)c1` (stereo not drawn) [Compound I-954] returned an IC50 of 10000 to 100000 nM.
The compound `O=C(Cc1n[nH]c2ccccc12)Nc1cc(Br)cc2c1C(c1cc(F)ccc1Cl)NC2=O` (stereo not drawn) [Compound I-955] yielded an IC50 of 10000 to 100000 nM.
`O=C1NC(c2cc(F)ccc2Cl)c2c(NC(=O)c3c[nH]c4cccc(Cl)c34)cc(Br)cc21` (stereo not drawn) [Compound I-956]: the IC50 is 1000 to 10000 nM.
For `O=C(Nc1cc(Br)cc2c1C(c1cc(F)ccc1Cl)NC2=O)c1cncc(C(F)(F)F)c1` (stereo not drawn) [Compound I-957] the value was 1000 to 10000 nM.
As for `O=C(Nc1cc(Br)cc2c1C(c1cc(F)ccc1Cl)NC2=O)c1cncc(F)c1` (stereo not drawn) [Compound I-958], the IC50 lay in the range of 10000 to 100000 nM.
Regarding `CC(C)(O)Cc1cc(NC(=O)c2cc(F)cc(Cl)c2)c2c(c1)C(=O)N[C@H]2c1cc(F)ccc1Cl` [Compound I-963], the IC50 was 500 to 1000 nM.
Consider `Cc1cc2nccnc2cc1-c1cc(NC(=O)c2cc(F)cc(C(F)(F)F)c2)c2c(c1)C(=O)NC2c1cc(F)ccc1Cl` (stereo not drawn) [Compound I-975], for which the IC50 is 100 to 500 nM.
The compound `COCCOc1cc(NC(=O)c2cc(F)cc(C(F)(F)F)c2)c2c(c1)C(=O)NC2c1cc(F)ccc1Cl` (stereo not drawn) [Compound I-977] returned an IC50 of 100 to 500 nM.
For `N#Cc1ncc(-c2cc(NC(=O)c3cc(F)cc(C(F)(F)F)c3)c3c(c2)C(=O)N[C@H]3c2cc(F)ccc2Cl)cn1` [Compound I-979] the value was 100 to 500 nM; for `O=C1NCc2c(NC(=O)N3CCCCC3Cc3ccccc3)cccc21` (stereo not drawn) [Compound I-990], 10000 to 100000 nM; for `COc1cc(C(=O)Nc2cc(Br)cc3c2C(c2cc(F)ccc2Cl)NC3=O)cc(Cl)c1F` (stereo not drawn) [Compound I-991], 100 to 500 nM.
To `O=C1NC(c2cc(F)ccc2Cl)c2c(NC(=O)N3CCCc4ccc(Cl)cc43)cc(Br)cc21` (stereo not drawn) [Compound I-992] belongs 1000 to 10000 nM; to `N#Cc1ccc(-c2cc(NC(=O)c3cc(F)cc(C(F)(F)F)c3)c3c(c2)C(=O)N[C@H]3c2cc(F)ccc2Cl)cn1` [Compound I-996], 500 to 1000 nM.
`Cn1ccc2c(F)cc(C(=O)Nc3cc(Br)cc4c3C(c3cc(F)ccc3Cl)NC4=O)cc21` (stereo not drawn) [Compound I-1005] displayed an IC50 of 1000 to 10000 nM.
For `O=C(Nc1cc(-c2cnc3ncnn3c2)cc2c1[C@@H](c1cc(F)ccc1Cl)NC2=O)c1cc(F)cc(C(F)(F)F)c1` [Compound I-1023] the value was 500 to 1000 nM.
For the compound `Cn1cnc2ccc(-c3cc(NC(=O)c4cc(F)cc(C(F)(F)F)c4)c4c(c3)C(=O)NC4c3cc(F)ccc3Cl)cc21` (stereo not drawn) [Compound I-1027], the IC50 was no more than 100 nM.
Turning to `O=C1Cc2c(cccc2-c2cc(NC(=O)c3cc(F)cc(C(F)(F)F)c3)c3c(c2)C(=O)NC3c2cc(F)ccc2Cl)N1` (stereo not drawn) [Compound I-1034], the IC50 is no more than 100 nM.
Compound `O=C(Nc1cc(-c2ccc3nc[nH]c3c2)cc2c1C(c1cc(F)ccc1Cl)NC2=O)c1cc(F)cc(C(F)(F)F)c1` (stereo not drawn) [Compound I-1035] registered an IC50 of no more than 100 nM.
The compound `Cc1nc2cc(-c3cc(NC(=O)c4cc(F)cc(C(F)(F)F)c4)c4c(c3)C(=O)NC4c3cc(F)ccc3Cl)ccc2o1` (stereo not drawn) [Compound I-1036] showed an IC50 of no more than 100 nM.
To `O=C(Nc1cc(-c2ccnn2C2COC2)cc2c1C(c1cc(F)ccc1Cl)NC2=O)c1cc(F)cc(C(F)(F)F)c1` (stereo not drawn) [Compound I-1037] belongs no more than 100 nM; to `O=C1Cc2cc(-c3cc(NC(=O)c4cc(F)cc(C(F)(F)F)c4)c4c(c3)C(=O)NC4c3cc(F)ccc3Cl)ccc2N1` (stereo not drawn) [Compound I-1041], no more than 100 nM.

These data come from US12581252B2, “Substituted pyrrolo[3,4-b]pyridines as PI3K-α inhibitors” (Relay Therapeutics, Inc., priority 2020, dated 2026).
